Measurements from EP1082963A1, “REMEDIES FOR JOINT DISEASES BOUND TO HYALURONIC ACID” (CHUGAI SEIYAKU KABUSHIKI KAISHA, priority 1998, dated 1999).

Molecular target: gelatinase B (Homo sapiens, UniProt P14780)
Assay: Gelatinase B inhibiting activity of synovial fluid recovered after intraarticular administration
Type: in vivo, rats
Parameters: purchased Roche Diagnostics Co., Ltd
Conditions: Fig. 7
Experimental: The following agents (1 to 3) were administered into right knee joints of 9-10 week old rats (n=4 to 10) and the animals were sacrificed at time intervals; the joint cavities were washed with a total 0.5 ml of a physiological saline to recover a synovial fluid. • Agent 1: 30 nmol of compound 1 • Agent 2: a mixture of 30 nmol of compound 1 and 0.3 mg of HA • Agent 3: 0.3 mg of "conjugate 4" (having compound 1 bound in an amount equivalent to 30 nmol)
By using a kit for measuring gelatinase activity manufactured by Roche Diagnostics, the inhibiting activity of the synovial fluid against gelatinase B was calculated according to the following formula. Gelatinase B Inhibition Activity (%) = [(Enzymatic Activity in the Absence of Synovial Fluid - Enzymatic Activity in the Presence of Added Synovial Fluid)/Enzymatic Activity in the Absence of Synovial Fluid] x 100 [formula]
The results were shown by a mean value ± standard deviation. The gelatinase B inhibiting activity of the synovial fluid from the group administered compound 1 alone and the group administered the mixture of compound 1 and HA decreased to 20% two hours after administration and to less than 5% 17 hours after administration while in the group administered "conjugate 4" about 50% of the gelatinase B inhibiting activity remained 17 hours after administration.

gelatinase B, sequence (P14780 94-707, species assumed): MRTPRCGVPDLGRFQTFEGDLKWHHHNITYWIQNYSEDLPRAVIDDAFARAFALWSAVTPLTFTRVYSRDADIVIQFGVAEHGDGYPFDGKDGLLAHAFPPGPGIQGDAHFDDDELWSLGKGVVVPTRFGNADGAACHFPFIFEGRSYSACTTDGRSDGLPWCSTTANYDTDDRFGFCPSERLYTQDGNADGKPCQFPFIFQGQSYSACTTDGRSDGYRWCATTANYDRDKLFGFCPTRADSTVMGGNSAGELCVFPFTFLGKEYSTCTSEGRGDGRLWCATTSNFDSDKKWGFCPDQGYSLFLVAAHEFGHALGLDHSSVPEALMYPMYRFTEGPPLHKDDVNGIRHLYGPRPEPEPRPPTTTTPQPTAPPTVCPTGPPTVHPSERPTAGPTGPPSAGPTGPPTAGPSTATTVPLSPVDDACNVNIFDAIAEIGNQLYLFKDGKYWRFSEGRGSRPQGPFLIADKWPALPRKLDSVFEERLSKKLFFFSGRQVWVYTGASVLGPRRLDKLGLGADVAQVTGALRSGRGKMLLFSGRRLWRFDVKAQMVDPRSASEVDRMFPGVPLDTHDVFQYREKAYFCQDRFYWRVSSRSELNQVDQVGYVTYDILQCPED

gelatinase B inhibiting activity of the synovial fluid (17 hours after administration into rat right knee joint): less than 5%
gelatinase B inhibiting activity of the synovial fluid (two hours after administration into rat right knee joint): 20%
Structure (SMILES): CNC(=O)[C@H](Cc1c[nH]c2ccccc12)NC(=O)C(CC(=O)NO)CC(C)C (stereo partly drawn) [compound 1, N-[2-isobutyl-3-(N'-hydroxycarbonylamido)propanoyl]-L-tryptophan methylamide]
